Measured values: patent US10517889B2, “Modulators of SMAD7 expression” (Ionis Pharmaceuticals, Inc., priority 2017, dated 2019)
Strand notation (5' to 3'): a small letter for the sugar, then the base; units joined by * are phosphorothioate-linked, units joined directly phosphodiester-linked; [ ] holds rarer units or linkages, { } end groups; capitals alone tell only the bases. k = constrained ethyl (cEt); [5mC] = 5-methylcytosine; d = 2'-deoxy (DNA)

These substances were tested on human SMAD7 mRNA (assay: Antisense inhibition of human SMAD7 mRNA expression in Hep3B cells by 3-10-3 cEt gapmers, 10,000 nM, electroporation (Example 2)). Conditions: Hep3B cells, electroporation with 10,000 nM antisense oligonucleotide, approximately 24 hours, primer probe set RTS5062, relative to untreated control cells.
Format: cell-based
Method in brief: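 Hep3B, 20,000 cells/well; electroporation, 10,000 nM ASO; ~24 h. Readout: SMAD7 mRNA by qRT-PCR (RTS5062), RIBOGREEN-normalised; % inhibition vs untreated.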

Going from “799097 (antisense kA*kA*kA*d[5mC]*d[5mC]*dT*dG*dA*dT*dG*dT*d[5mC]*dA*k[5mC]*k[5mC]*kA) [compound 799097]” to “799098 (antisense kA*kA*kA*dA*d[5mC]*d[5mC]*dT*dG*dA*dT*dG*dT*d[5mC]*kA*k[5mC]*k[5mC]) [compound 799098]”, the “% Inhibition” value falls from 39% to 38%.

Compared with “799099 (antisense kA*kA*kA*dA*dA*d[5mC]*d[5mC]*dT*dG*dA*dT*dG*dT*k[5mC]*kA*k[5mC]) [compound 799099]”, “799100 (antisense kG*kA*kA*dA*dA*dA*d[5mC]*d[5mC]*dT*dG*dA*dT*dG*kT*k[5mC]*kA) [compound 799100]” is lower in “% Inhibition” value: 44% for the first, 38% for the second.

Compared with “799101 (antisense kG*kG*kA*dA*dA*dA*dA*d[5mC]*d[5mC]*dT*dG*dA*dT*kG*kT*k[5mC]) [compound 799101]”, “799102 (antisense k[5mC]*kG*kG*dG*dA*dA*dA*dA*dA*d[5mC]*d[5mC]*dT*dG*kA*kT*kG) [compound 799102]” is lower in “% Inhibition” value: 55% for the first, 34% for the second.

Going from “799113 (antisense kG*kA*kT*dG*dG*dG*dA*dG*d[5mC]*dA*dG*dG*d[5mC]*kA*kG*kT) [compound 799113]” to “799114 (antisense k[5mC]*kA*kG*dG*dA*dT*dG*dG*dG*dA*dG*d[5mC]*dA*kG*kG*k[5mC]) [compound 799114]”, the “% Inhibition” value falls from 57% to 35%.

Compared with “799115 (antisense kA*k[5mC]*kA*d[5mC]*dA*dG*dG*dA*dT*dG*dG*dG*dA*kG*k[5mC]*kA) [compound 799115]”, “799116 (antisense kT*kA*kA*d[5mC]*dA*d[5mC]*dA*d[5mC]*dA*dG*dG*dA*dT*kG*kG*kG) [compound 799116]” is lower in “% Inhibition” value: 40% for the first, 34% for the second.

Compared with “799117 (antisense kG*k[5mC]*kT*dT*dA*dA*d[5mC]*dA*d[5mC]*dA*d[5mC]*dA*dG*kG*kA*kT) [compound 799117]”, “799119 (antisense kA*kG*k[5mC]*dA*dG*dA*dG*d[5mC]*dT*dT*dA*dA*d[5mC]*kA*k[5mC]*kA) [compound 799119]” is higher in “% Inhibition” value: 46% for the first, 50% for the second.

First: 799120 (antisense kA*kA*kT*dA*dG*d[5mC]*dA*dG*dA*dG*d[5mC]*dT*dT*kA*kA*k[5mC]) [compound 799120]
Second: 799121 (antisense k[5mC]*k[5mC]*kT*dA*dA*dT*dA*dG*d[5mC]*dA*dG*dA*dG*k[5mC]*kT*kT) [compound 799121]
The “% Inhibition” value of the first is higher: 45% for the first, 25% for the second.

Going from “799122 (antisense k[5mC]*kT*kG*dG*d[5mC]*d[5mC]*dT*dA*dA*dT*dA*dG*d[5mC]*kA*kG*kA) [compound 799122]” to “799133 (antisense kG*k[5mC]*kT*dA*dA*dG*d[5mC]*dA*dT*dG*dT*d[5mC]*d[5mC]*k[5mC]*kT*k[5mC]) [compound 799133]”, the “% Inhibition” value falls from 29% to 17%.

Going from “799134 (antisense kA*k[5mC]*kT*dG*d[5mC]*dT*dA*dA*dG*d[5mC]*dA*dT*dG*kT*k[5mC]*k[5mC]) [compound 799134]” to “799135 (antisense kG*kG*kG*dA*d[5mC]*dT*dG*d[5mC]*dT*dA*dA*dG*d[5mC]*kA*kT*kG) [compound 799135]”, the “% Inhibition” value rises from 17% to 38%.

Compared with “799136 (antisense k[5mC]*kT*kT*d[5mC]*dT*dT*dG*dG*dA*dG*dG*dG*dA*kA*kG*kG) [compound 799136]”, “799137 (antisense kA*kA*kT*d[5mC]*d[5mC]*dT*dT*d[5mC]*dT*dT*dG*dG*dA*kG*kG*kG) [compound 799137]” is higher in “% Inhibition” value: 3% for the first, 49% for the second.

Compared with “799138 (antisense k[5mC]*k[5mC]*kA*dA*dA*dT*d[5mC]*d[5mC]*dT*dT*d[5mC]*dT*dT*kG*kG*kA) [compound 799138]”, “799139 (antisense k[5mC]*kG*kG*dA*d[5mC]*d[5mC]*dA*dA*dA*dT*d[5mC]*d[5mC]*dT*kT*k[5mC]*kT) [compound 799139]” is higher in “% Inhibition” value: 7% for the first, 56% for the second.

Going from “799140 (antisense kT*kG*kA*d[5mC]*dG*dG*dA*d[5mC]*d[5mC]*dA*dA*dA*dT*k[5mC]*k[5mC]*kT) [compound 799140]” to “799141 (antisense kT*kT*kA*dT*dG*dA*d[5mC]*dG*dG*dA*d[5mC]*d[5mC]*dA*kA*kA*kT) [compound 799141]”, the “% Inhibition” value falls from 60% to 47%.

With “799142 (antisense kG*kG*kG*dT*dT*dA*dT*dG*dA*d[5mC]*dG*dG*dA*k[5mC]*k[5mC]*kA) [compound 799142]” the “% Inhibition” value was 38%.

Going from “799103 (antisense k[5mC]*k[5mC]*kG*dG*dG*dA*dA*dA*dA*dA*d[5mC]*d[5mC]*dT*kG*kA*kT) [compound 799103]” to “799104 (antisense kA*kG*kT*d[5mC]*d[5mC]*dG*dG*dG*dA*dA*dA*dA*dA*k[5mC]*k[5mC]*kT) [compound 799104]”, the “% inhibition of SMAD7 mRNA expression” value rises from 12% to 40%.

Going from “799105 (antisense k[5mC]*kT*kA*dA*dG*dT*d[5mC]*d[5mC]*dG*dG*dG*dA*dA*kA*kA*kA) [compound 799105]” to “799106 (antisense kT*kT*kT*dT*d[5mC]*dT*dA*dA*dG*dT*d[5mC]*d[5mC]*dG*kG*kG*kA) [compound 799106]”, the “% inhibition of SMAD7 mRNA expression” value rises from 12% to 34%.

Going from “799107 (antisense k[5mC]*kT*kG*dG*dT*dT*dT*dT*d[5mC]*dT*dA*dA*dG*kT*k[5mC]*k[5mC]) [compound 799107]” to “799108 (antisense k[5mC]*kT*kG*dA*dG*d[5mC]*dT*dG*dG*dT*dT*dT*dT*k[5mC]*kT*kA) [compound 799108]”, the “% inhibition of SMAD7 mRNA expression” value rises from 51% to 64%.

First: 799109 (antisense k[5mC]*kA*kG*dT*dG*d[5mC]*dT*dG*dA*dG*d[5mC]*dT*dG*kG*kT*kT) [compound 799109]
Second: 799110 (antisense kA*kG*kG*d[5mC]*dA*dG*dT*dG*d[5mC]*dT*dG*dA*dG*k[5mC]*kT*kG) [compound 799110]
The “% inhibition of SMAD7 mRNA expression” value of the first is higher: 48% for the first, 33% for the second.

First: 799111 (antisense kA*kG*k[5mC]*dA*dG*dG*d[5mC]*dA*dG*dT*dG*d[5mC]*dT*kG*kA*kG) [compound 799111]
Second: 799112 (antisense kG*kG*kG*dA*dG*d[5mC]*dA*dG*dG*d[5mC]*dA*dG*dT*kG*k[5mC]*kT) [compound 799112]
The “% inhibition of SMAD7 mRNA expression” value of the first is lower: 50% for the first, 58% for the second.

Going from “799123 (antisense k[5mC]*kT*kT*dG*d[5mC]*dT*dG*dG*d[5mC]*d[5mC]*dT*dA*dA*kT*kA*kG) [compound 799123]” to “799124 (antisense k[5mC]*k[5mC]*kG*d[5mC]*dT*dT*dG*d[5mC]*dT*dG*dG*d[5mC]*d[5mC]*kT*kA*kA) [compound 799124]”, the “% inhibition of SMAD7 mRNA expression” value falls from 23% to 17%.

Compared with “799125 (antisense kT*k[5mC]*k[5mC]*d[5mC]*d[5mC]*dG*d[5mC]*dT*dT*dG*d[5mC]*dT*dG*kG*k[5mC]*k[5mC]) [compound 799125]”, “799126 (antisense kG*kA*k[5mC]*dA*dT*d[5mC]*d[5mC]*d[5mC]*d[5mC]*dG*d[5mC]*dT*dT*kG*k[5mC]*kT) [compound 799126]” is lower in “% inhibition of SMAD7 mRNA expression” value: 62% for the first, 4% for the second.

First: 799127 (antisense kA*kG*kG*dG*dA*d[5mC]*dA*dT*d[5mC]*d[5mC]*d[5mC]*d[5mC]*dG*k[5mC]*kT*kT) [compound 799127]
Second: 799128 (antisense k[5mC]*k[5mC]*k[5mC]*dA*dG*dG*dG*dA*d[5mC]*dA*dT*d[5mC]*d[5mC]*k[5mC]*k[5mC]*kG) [compound 799128]
The “% inhibition of SMAD7 mRNA expression” value of the first is higher: 67% for the first, 63% for the second.

Going from “799129 (antisense k[5mC]*k[5mC]*kT*d[5mC]*d[5mC]*d[5mC]*dA*dG*dG*dG*dA*d[5mC]*dA*kT*k[5mC]*k[5mC]) [compound 799129]” to “799130 (antisense kG*kT*k[5mC]*d[5mC]*d[5mC]*dT*d[5mC]*d[5mC]*d[5mC]*dA*dG*dG*dG*kA*k[5mC]*kA) [compound 799130]”, the “% inhibition of SMAD7 mRNA expression” value falls from 37% to 1%.

Going from “799131 (antisense k[5mC]*kA*kT*dG*dT*d[5mC]*d[5mC]*d[5mC]*dT*d[5mC]*d[5mC]*d[5mC]*dA*kG*kG*kG) [compound 799131]” to “799132 (antisense kA*kA*kG*d[5mC]*dA*dT*dG*dT*d[5mC]*d[5mC]*d[5mC]*dT*d[5mC]*k[5mC]*k[5mC]*kA) [compound 799132]”, the “% inhibition of SMAD7 mRNA expression” value rises from 6% to 38%.

First: 799145 (antisense k[5mC]*kT*kT*dG*dG*dG*dT*dT*dA*dT*dG*dA*d[5mC]*kG*kG*kA) [compound 799145]
Second: 799146 (antisense kT*kA*k[5mC]*d[5mC]*dT*dT*dG*dG*dG*dT*dT*dA*dT*kG*kA*k[5mC]) [compound 799146]
The “% inhibition of SMAD7 mRNA expression” value of the first is higher: 46% for the first, 0% for the second.

Going from “799147 (antisense kG*kT*kA*d[5mC]*d[5mC]*dT*dT*dG*dG*dG*dT*dT*dA*kT*kG*kA) [compound 799147]” to “799148 (antisense kT*kG*kG*dT*dA*d[5mC]*d[5mC]*dT*dT*dG*dG*dG*dT*kT*kA*kT) [compound 799148]”, the “% inhibition of SMAD7 mRNA expression” value rises from 28% to 29%.

First: 799149 (antisense kG*kG*kA*dT*dG*dG*dT*dA*d[5mC]*d[5mC]*dT*dT*dG*kG*kG*kT) [compound 799149]
Second: 799150 (antisense k[5mC]*kT*kA*dG*dG*dA*dT*dG*dG*dT*dA*d[5mC]*d[5mC]*kT*kT*kG) [compound 799150]
The “% inhibition of SMAD7 mRNA expression” value of the first is higher: 46% for the first, 22% for the second.

Going from “799151 (antisense kA*kG*k[5mC]*d[5mC]*dT*dA*dG*dG*dA*dT*dG*dG*dT*kA*k[5mC]*k[5mC]) [compound 799151]” to “799152 (antisense kT*kG*kT*d[5mC]*dA*dG*d[5mC]*d[5mC]*dT*dA*dG*dG*dA*kT*kG*kG) [compound 799152]”, the “% inhibition of SMAD7 mRNA expression” value falls from 39% to 33%.
